Read-outs that look alike come from different tables or passages of the source.
What was measured:
[1] = tested on: lung cancer (4 cell lines); assay: CellTiter-Glo Viability Assay, lung cancer; type: cell-based; conditions: Homo sapiens, inhibition of cancer cell proliferation
[2] = tested on: BT-549; assay: CellTiter-Glo Viability Assay, breast cancer; type: cell-based; conditions: Homo sapiens, 96 h; BT-549, breast cancer, four days; read-out: EC50
[3] = tested on: DU4475; assay: CellTiter-Glo Viability Assay, breast cancer; type: cell-based; conditions: Homo sapiens, DU-4475, 96 h; DU4475, breast cancer, four days; read-out: EC50
[4] = tested on: CAMA1; assay: CellTiter-Glo Viability Assay, breast cancer; type: cell-based; conditions: Homo sapiens, CAMA-1, 96 h; CAMA1, breast cancer, four days; read-out: EC50
[5] = tested on: MCF7; assay: CellTiter-Glo Viability Assay, breast cancer; type: cell-based; conditions: Homo sapiens, 96 h; MCF7, breast cancer, four days; read-out: EC50
[6] = tested on: MDA-MB-231-Luc; assay: CellTiter-Glo Viability Assay, breast cancer; type: cell-based; conditions: Homo sapiens, 96 h; MDA-MB-231-Luc, breast cancer, four days; read-out: EC50
[7] = tested on: HCC1599; assay: CellTiter-Glo Viability Assay, breast cancer; type: cell-based; conditions: Homo sapiens, 96 h; HCC1599, breast cancer, four days; read-out: EC50
[8] = tested on: T47D; assay: CellTiter-Glo Viability Assay, breast cancer; type: cell-based; conditions: Homo sapiens, 96 h, breast cancer, four days, read-out: EC50
[9] = tested on: ZR-75-1; assay: CellTiter-Glo Viability Assay, breast cancer; type: cell-based; conditions: Homo sapiens, 96 h; ZR-75-1, breast cancer, four days; read-out: EC50
[10] = tested on: ovarian cancer (4 cell lines); assay: CellTiter-Glo Viability Assay, ovarian cancer; type: cell-based; conditions: Homo sapiens, inhibition of cancer cell proliferation
[11] = tested on: colorectal cancer (6 cell lines); assay: CellTiter-Glo Viability Assay, colorectal cancer; type: cell-based; conditions: Homo sapiens, inhibition of cancer cell proliferation
[12] = tested on: prostate cancer (5 cell lines); assay: CellTiter-Glo Viability Assay, prostate cancer; type: cell-based; conditions: Homo sapiens
[13] = target: T1, CLK2 (Homo sapiens, UniProt P49760); assay: CLK2 kinase activity assay (Z-lyte, Ser/Thr 6 peptide); type: biochemical; conditions: recombinant CLK2 kinase, ATP 60 μM; read-out: EC50
T1 construct: purchased Thermo Fisher (Life Technologies), Z'-LYTE Kinase Assay Kits
T1 sequence (P49760 whole entry): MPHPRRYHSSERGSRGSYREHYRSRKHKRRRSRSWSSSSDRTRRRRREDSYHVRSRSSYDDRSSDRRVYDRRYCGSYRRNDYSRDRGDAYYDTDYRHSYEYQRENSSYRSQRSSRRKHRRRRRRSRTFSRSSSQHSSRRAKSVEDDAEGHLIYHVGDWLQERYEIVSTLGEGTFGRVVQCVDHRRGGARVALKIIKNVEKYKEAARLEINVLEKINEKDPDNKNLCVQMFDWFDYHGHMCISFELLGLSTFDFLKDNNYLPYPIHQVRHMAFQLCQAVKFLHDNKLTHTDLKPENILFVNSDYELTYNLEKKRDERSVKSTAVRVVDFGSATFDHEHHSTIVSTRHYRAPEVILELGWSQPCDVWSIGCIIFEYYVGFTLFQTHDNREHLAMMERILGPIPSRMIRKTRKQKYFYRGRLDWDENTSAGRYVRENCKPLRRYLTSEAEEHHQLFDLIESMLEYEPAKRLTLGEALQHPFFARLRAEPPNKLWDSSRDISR
Procedure: All reactions were performed in duplicate.

[14] = tested on: pancreatic cancer (8 cell lines); assay: CellTiter-Glo Viability Assay, pancreatic cancer; type: cell-based; conditions: Homo sapiens, inhibition of cancer cell proliferation
[15] = target: CLK3 (Homo sapiens, UniProt P49761); assay: CLK3 kinase activity assay (Z-lyte, Ser/Thr 18 peptide)
Chain of CLK3 (P49761 whole entry): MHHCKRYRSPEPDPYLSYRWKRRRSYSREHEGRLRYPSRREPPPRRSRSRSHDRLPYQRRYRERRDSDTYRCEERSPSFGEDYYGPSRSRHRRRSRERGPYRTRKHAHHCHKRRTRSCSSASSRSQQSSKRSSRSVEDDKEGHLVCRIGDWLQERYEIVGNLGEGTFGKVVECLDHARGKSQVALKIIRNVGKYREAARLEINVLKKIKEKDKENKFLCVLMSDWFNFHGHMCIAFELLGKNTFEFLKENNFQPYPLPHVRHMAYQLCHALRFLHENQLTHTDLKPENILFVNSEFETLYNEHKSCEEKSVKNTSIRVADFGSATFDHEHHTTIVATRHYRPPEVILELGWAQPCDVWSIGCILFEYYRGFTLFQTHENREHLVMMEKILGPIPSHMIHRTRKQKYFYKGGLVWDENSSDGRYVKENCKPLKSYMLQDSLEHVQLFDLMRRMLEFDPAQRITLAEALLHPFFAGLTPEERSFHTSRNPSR

[16] = tested on: liver cancer (3 cell lines); assay: CellTiter-Glo Viability Assay, liver cancer; type: cell-based; conditions: Homo sapiens, inhibition of cancer cell proliferation
[17] = tested on: all 50 cell lines; assay: CellTiter-Glo Viability Assay, average across all cell lines; type: cell-based; conditions: Homo sapiens; across all 50 cell lines; read-out: average EC50 for inhibition of cancer cell proliferation
In short: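 Cells were plated at 300-3,000 per well in their own media, then treated with compound in duplicate, with DMSO wells as controls. After four days at 37° C and 5% CO2, CellTiter-Glo was added, and luminescence was read. EC50s were fitted.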

[18] = tested on: haematopoietic & lymphoid tumors (13 cell lines); assay: CellTiter-Glo Viability Assay, haematopoietic & lymphoid tumors; type: cell-based; conditions: Homo sapiens, inhibition of cancer cell proliferation

Structure (SMILES): Cc1n[nH]c2cc(F)c(-c3cncc(CN4CCNCC4)c3)cc12 [Compound 63]
- EC50 ([1]; A-427, A427 cell line, read-out: Lung cancer, EC50 (μM) A427): 4.18 µM
- EC50 ([1]; HCC78, HCC-78 cell line, read-out: Lung cancer, EC50 (μM) HCC-78): 8.18 µM
- EC50 ([1]; NCI-H460 cell line, read-out: Lung cancer, EC50 (μM) NCI-H460): 7.41 µM
- EC50 ([1]; NCI-H522 cell line, read-out: Lung cancer, EC50 (μM) NCI-H522): 3.3 µM
- EC50 [2]: 4.74 µM
- EC50 [3]: 3.87 µM
- EC50 [4]: 5.21 µM
- EC50 [5]: > 10 µM
- EC50 [6]: 6.47 µM
- EC50 [7]: 2.33 µM
- EC50 [8]: 8.47 µM
- EC50 [9]: 6.81 µM
- EC50 ([10]; PA-1, PA1 cell line, read-out: Ovarian cancer, EC50 (μM) PA1): 3.04 µM
- EC50 ([10]; TOV112D, TOV-112D cell line, read-out: Ovarian cancer, EC50 (μM) TOV-112D): 3.63 µM
- EC50 ([10]; OV-90 cell line, read-out: Ovarian cancer, EC50 (μM) OV-90): 7.97 µM
- EC50 ([10]; OVCAR-3 cell line, read-out: Ovarian cancer, EC50 (μM) OVCAR-3): 2.62 µM
- EC50 ([11]; HCT-116, HCT116 cell line, read-out: Colorectal cancer, EC50 (μM) HCT116): 2.93 µM
- EC50 ([11]; HT-29, HT29 cell line, read-out: Colorectal cancer, EC50 (μM) HT29): 6.16 µM
- EC50 ([11]; SW-620, SW620 cell line, read-out: Colorectal cancer, EC50 (μM) SW620): 1.82 µM
- EC50 ([11]; DLD-1 cell line, read-out: Colorectal cancer, EC50 (μM) DLD-1): 5.01 µM
- EC50 ([11]; SW48 cell line, read-out: Colorectal cancer, EC50 (μM) SW48): 1.49 µM
- EC50 ([11]; SW480 cell line, read-out: Colorectal cancer, EC50 (μM) SW480): 3.24 µM
- EC50 ([12]; DU-145, read-out: Prostate cancer EC50 Du-145): 6.49 µM
- EC50 ([12]; PC-3, PC3 cell line, inhibition of cancer cell proliferation, read-out: Prostate cancer EC50 PC3): 4.42 µM
- EC50 ([12]; 22Rv1 cell line, inhibition of cancer cell proliferation, read-out: Prostate cancer EC50 22Rv1): 3.98 µM
- EC50 ([12]; LNCap clone FGC cell line, inhibition of cancer cell proliferation, read-out: Prostate cancer EC50 LNCap clone FGC): 6.85 µM
- EC50 ([12]; VCaP (Sigma) cell line, inhibition of cancer cell proliferation, read-out: Prostate cancer EC50 VCaP (Sigma)): 6.66 µM
- EC50 [13]: 0.012 µM
- EC50 ([14]; BXPC-3, BxPC3 cell line, read-out: Pancreatic cancer, EC50 BxPC3): 9.16 µM
- EC50 ([14]; CAPAN-1, Capan1 cell line, read-out: Pancreatic cancer, EC50 Capan1): 4.84 µM
- EC50 ([14]; Capan-2, Capan2 cell line, read-out: Pancreatic cancer, EC50 Capan2): 8.87 µM
- EC50 ([14]; MIA PaCa-2 cell line, read-out: Pancreatic cancer, EC50 MIA PaCa-2): 1.59 µM
- EC50 ([14]; PANC 05.04 cell line, read-out: Pancreatic cancer, EC50 PANC 05.04): 5.51 µM
- EC50 ([14]; PANC-1 cell line, read-out: Pancreatic cancer, EC50 PANC-1): 5.64 µM
- EC50 ([14]; UPAFII cell line, read-out: Pancreatic cancer, EC50 UPAFII): 3.82 µM
- EC50 [15]: 0.343 µM
- EC50 ([16]; SNU-398, SNU398 cell line, read-out: Liver cancer, EC50 SNU398): 1.37 µM
- EC50 ([16]; HEPG2 cell line, read-out: Liver cancer, EC50 HEPG2): 3.44 µM
- EC50 ([16]; PLC/PRF/5 cell line, read-out: Liver cancer, EC50 PLC/PRF/5): 9.52 µM
- EC50 [17]: 5.05 µM
- EC50 ([18]; DND41, DND-41 cell line, read-out: Haematopoietic & Lymphoid tumors, EC50 (μM) DND-41): 7.09 µM
- EC50 ([18]; MV4-11, MV-4-11 cell line, read-out: Haematopoietic & Lymphoid tumors, EC50 (μM) MV-4-11): 3.34 µM
- EC50 ([18]; Rec1, REC-1 cell line, read-out: Haematopoietic & Lymphoid tumors, EC50 (μM) REC-1): 3.52 µM
- EC50 ([18]; SU-DHL-4, SUDHL4 cell line, read-out: Haematopoietic & Lymphoid tumors, EC50 (μM) SUDHL4): 3.46 µM
- EC50 ([18]; HL-60 cell line, read-out: Haematopoietic & Lymphoid tumors, EC50 (μM) HL-60): 8.7 µM
- EC50 ([18]; JM1 cell line, read-out: Haematopoietic & Lymphoid tumors, EC50 (μM) JM1): 1.69 µM
- EC50 ([18]; JURKAT, Clone E6-1 cell line, read-out: Haematopoietic & Lymphoid tumors, EC50 (μM) JURKAT, Clone E6-1): > 10 µM
- EC50 ([18]; JeKo-1 cell line, read-out: Haematopoietic & Lymphoid tumors, EC50 (μM) JeKo-1): 1.49 µM
- EC50 ([18]; KASUMI-1 cell line, read-out: Haematopoietic & Lymphoid tumors, EC50 (μM) KASUMI-1): 3.19 µM
- EC50 ([18]; Loucy cell line, read-out: Haematopoietic & Lymphoid tumors, EC50 (μM) Loucy): 3.72 µM
- EC50 ([18]; MOLT-4 cell line, read-out: Haematopoietic & Lymphoid tumors, EC50 (μM) MOLT-4): 7.07 µM
- EC50 ([18]; TF-1 cell line, read-out: Haematopoietic & Lymphoid tumors, EC50 (μM) TF-1): 6 µM
- EC50 ([18]; TOLEDO cell line, read-out: Haematopoietic & Lymphoid tumors, EC50 (μM) TOLEDO): 2.21 µM

Source: US20220062240A1, “METHODS OF TREATING CANCER USING A CLK INHIBITOR” (BioSplice Therapeutics, Inc., priority 2018, published 2022)
